The structures appear in SMILES notation. pEC50, pIC50: −log10 of the molar value. Read-outs that look alike come from different tables or passages of the source. Starred links: 1 amine or outer side, 2 acyl side, 3 side chain; linkers in the order of their positions; H or OH if unused. Non-standard residues stand in square brackets, D forms with d. Residues, ends and D or L forms follow the SMILES beside them. *: point of attachment. Phe(4-CH2SO3H) = N[C@@H](Cc1ccc(CS(=O)(=O)O)cc1)C(=O)O; C20 diacid = O=C(O)CCCCCCCCCCCCCCCCCCC(=O)*; sY = N[C@@H](Cc1ccc(OS(=O)(=O)O)cc1)C(=O)O; C18 diacid = O=C(O)CCCCCCCCCCCCCCCCC(=O)*; γGlu = O=C(O)[C@H](CCC(=O)[*:2])N[*:1]; βAsp = O=C(O)[C@H](CC(=O)[*:2])N[*:1]; NMeF = CN[C@@H](Cc1ccccc1)C(=O)O; dNMeD = CN[C@H](CC(=O)O)C(=O)O; Nle = CCCC[C@H](N)C(=O)O; AEEA = NCCOCCOCC(=O)O

In assay [1] the target is T1, human cholecystokinin-2 receptor (CCK-2R) (Homo sapiens, UniProt P32239).
T1 construct: host or cells: 1321-N1 cells (plasma membranes prepared by Evotec AG Hamburg)
T1 sequence (P32239 1-447): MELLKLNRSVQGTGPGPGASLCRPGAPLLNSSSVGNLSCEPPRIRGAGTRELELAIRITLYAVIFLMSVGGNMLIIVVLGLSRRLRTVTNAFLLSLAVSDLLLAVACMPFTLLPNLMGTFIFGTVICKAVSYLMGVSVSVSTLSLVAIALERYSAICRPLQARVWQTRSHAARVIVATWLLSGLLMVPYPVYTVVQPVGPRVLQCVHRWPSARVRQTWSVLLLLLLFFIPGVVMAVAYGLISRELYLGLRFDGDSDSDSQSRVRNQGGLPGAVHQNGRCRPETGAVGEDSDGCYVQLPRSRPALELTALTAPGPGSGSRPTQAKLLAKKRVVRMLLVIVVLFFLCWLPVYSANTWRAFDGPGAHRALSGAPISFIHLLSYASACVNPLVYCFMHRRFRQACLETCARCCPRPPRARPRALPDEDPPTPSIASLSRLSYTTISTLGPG
The assay is described as follows: In vitro potency on CCK-2R, whole cell functional assay (IP1 accumulation, IP-One HTRF). It counts as cell-based.

Assay [2] addresses T1, human cholecystokinin-2 receptor (CCK-2R). The assay is described as follows: In vitro receptor binding to CCK-2R, SPA displacement of [125I]-CCK-8s from plasma membranes. The method, then:
The in vitro binding affinity is a measure of the strength of attraction between a receptor and its ligand.
Displacement of radio ligand was measured as reduction in light emission from SPA beads.
The cells used in these assays were 1321-N1 cells stably expressing the CCK-1R or the CCK-2R (Perkin Elmer product numbers ES-530-A and ES-531-A, respectively see www.perkinelmer.com/Catalog/Product/ID/ES-530-A or -ES-531-A, respectively).
The cells were cultured in an incubator (95% RH (relative humidity), 5% (of standard atmospheric pressure) CO2, 37° C.) in cell culture medium (DMEM (Lonza catalogue BE-12-604F/U1), with 10% (v/v) Foetal Calf Serum (FCS, Gibco catalogue 16140-071), 1% (w/w) Sodium pyruvate (Gibco catalogue 11360-039), 500 μg/ml Geneticin® (G418) (Gibco catalogue 10131-027), 25 μg/ml Zeocin™ (Invitrogen catalogue R250-05), 1% (w/w) Pen/Strep (Gibco catalogue 15140-122)).
Plasma membranes were prepared by Evotec AG Hamburg by use of the ParrBomb (#4635, Parr Instrument Company). Cells were lysed with a lysis buffer (50 mM Tris, 2.5 mM EDTA, pH7) with added protease inhibitors (Complete Proteaseinhibitors EDTA-free (#05056489001, Roche), 1 tablet per 50 mL lysis buffer). The membrane fraction was separated by centrifugation. First, the cell lysate was centrifuged at 1000×g for 10 minutes at 4° C. The pellet was discarded and the supernatant was then centrifuged at 100.000×g for 30 minutes at 4° C. The supernatant was discarded and the pellet was re-suspended in 1 ml/5×10^8 cells ice cold membrane buffer (50 mM Tris, 320 mM Sucrose and Complete Proteaseinhibitors EDTA-free (#05056489001, Roche); pH7.4) and homogenised with dounce homogeniser. The protein concentration was determined using the Pierce™ BCA Protein Assay Kit according to kit manual, and the membrane preparation was adjust to the desired protein concentration with membrane buffer and aliquoted into pre-cooled tubes, snap-frozen in liquid nitrogen, and stored at −80° C.
CCK receptor binding assays were performed in 96-well Optiplates (Cat #6005290, PerkinElmer, Waltham, Mass., USA) in a total volume of 200 μl per well. CCK derivatives in 80% DMSO stock solutions of 800 μM were serially diluted […] in assay buffer (50 mM Tris/HCl, 4.5 mM MgCl2, […], 0.02% Tween 20, 0.25% ovalbumin, 0.1% pluronic F-68, pH 7.4) to final assay concentrations ranging from 10^−5 M (ten μM) to 10^−12 M (one pM).
Fifty μl of reference or test compounds were added to the Optiplates (using technical duplicates, i.e. two wells of each sample, one data point being the average of two wells), followed by addition of 150 μl of the mixture of SPA bead, radio ligand, and plasma membrane. The plates were sealed and incubated in the dark at +22° C. for 2 hours on a IKA MTS plate shaker (IKA-Werke D-79219 Staufen) set at 300 rpm and thereafter centrifuged at 1500 rpm for 10 minutes in a Heraeus Multifuge 3s centrifuge. SPA bead light emission was measured in a TopCount NXT (PerkinElmer) for 2 min/well after a delay of 60 min.
As a measure of compound affinity, calculations were performed in order to determine the half maximal inhibitory concentration (the IC50 value).
The data from the TopCounter were given as counts per minute (CPM). The CPM was plotted as a function of the concentration of compound. Dose-response curves were obtained, and IC50 values were calculated, by a nonlinear three-parameter logistic equation (log(agonist) vs response) with hillslope=−1, and shared top and bottom using the software programme GraphPad Prism v 6.0 (Graph Pad software, La Jolla, Calif., USA). The highest dose tested was 10^−5 M (1×10^7 pM).
The preference of a specific compound for the CCK-1 receptor, or the CCK-1R selectivity, may be defined as IC50 (CCK-2R)/IC50 (CCK-1R).
A minimum of three biological replicates was measured for each test compound on separate assay plates.

Where [3] appears, read: 1321-N1 cells stably expressing CCK-2R, IP1 accumulation, highest dose tested 1×10^6 pM, read-out: EC50 (CCK-2R).
[4] abbreviates: displacement of [125I]-CCK-8s, plasma membranes of 1321-N1 cells expressing CCK-2R, highest dose tested 1×10^7 pM, read-out: IC50 (CCK-2R).

In turn, `CC(C)C[C@H](NC(=O)[C@H](Cc1ccc(OS(=O)(=O)O)cc1)NC(=O)[C@H](CC(=O)O)NC(=O)COCCOCCNC(=O)COCCOCCNC(=O)CC[C@H](NC(=O)CCCCCCCCCCCCCCCCC(=O)O)C(=O)O)C(=O)NCC(=O)N[C@@H](Cc1c[nH]c2ccccc12)C(=O)N[C@@H](CC(C)C)C(=O)N(C)[C@H](CC(=O)O)C(=O)N(C)[C@@H](Cc1ccccc1)C(N)=O` [Example 13, 2-[2-[2-[[2-[2-[2-[[(4S)-4-Carboxy-4-(17-carboxyheptadecanoylamino)butanoyl]amino]ethoxy]ethoxy]acetyl]amino]ethoxy]ethoxy]acetyl-Asp-sTyr-Leu-Gly-Trp-Leu-DMeAsp-MePhe-amide] showed a negative-log EC50 (pEC50) in assay [1] of 7.10. This compound also had a pIC50 in assay [2] of 6.38.
In the same order, the values of `CC(C)C[C@H](NC(=O)[C@H](Cc1ccc(OS(=O)(=O)O)cc1)NC(=O)[C@H](CC(=O)O)NC(=O)COCCOCCNC(=O)COCCOCCNC(=O)CC[C@H](NC(=O)CCCCCCCCCCCCCCCCC(=O)O)C(=O)O)C(=O)NCC(=O)N[C@@H](Cc1c[nH]c2ccccc12)C(=O)N1CCC[C@H]1C(=O)N(C)[C@H](CC(=O)O)C(=O)N(C)[C@@H](Cc1ccccc1)C(N)=O` [Example 15, 2-[2-[2-[[2-[2-[2-[[(4S)-4-Carboxy-4-(17-carboxyheptadecanoylamino)butanoyl]amino]ethoxy]ethoxy]acetyl]amino]ethoxy]ethoxy]acetyl-Asp-sTyr-Leu-Gly-Trp-Pro-DMeAsp-MePhe-amide] ({C18 diacid-γGlu-AEEA-AEEA}-D[sY]LGWP[dNMeD][NMeF]-NH2) are 6.82 and 6.00.
Regarding `CCCC[C@H](NC(=O)[C@H](Cc1c[nH]c2ccccc12)NC(=O)CNC(=O)[C@H](CCCCN)NC(=O)[C@H](Cc1ccc(OS(=O)(=O)O)cc1)NC(=O)[C@H](CC(=O)O)NC(=O)COCCOCCNC(=O)COCCOCCNC(=O)CC[C@H](NC(=O)CCCCCCCCCCCCCCCCC(=O)O)C(=O)O)C(=O)N(C)[C@H](CC(=O)O)C(=O)N(C)[C@@H](Cc1ccccc1)C(N)=O` [Example 16, 2-[2-[2-[[2-[2-[2-[[(4S)-4-Carboxy-4-(17-carboxyheptadecanoylamino)butanoyl]amino]ethoxy]ethoxy]acetyl]amino]ethoxy]ethoxy]acetyl-Asp-sTyr-Lys-Gly-Trp-Nle-DMeAsp-MePhe-amide] ({C18 diacid-γGlu-AEEA-AEEA}-D[sY]KGW[Nle][dNMeD][NMeF]-NH2), the pIC50 in assay [2] is less than 5.00.
On to `CCCC[C@H](NC(=O)[C@H](Cc1ccc(CS(=O)(=O)O)cc1)NC(=O)C[C@H](NC(=O)COCCOCCNC(=O)COCCOCCNC(=O)CC[C@H](NC(=O)CCCCCCCCCCCCCCCCC(=O)O)C(=O)O)C(=O)O)C(=O)NCC(=O)N[C@@H](Cc1c[nH]c2ccccc12)C(=O)N[C@@H](CCCC)C(=O)N(C)[C@H](CC(=O)O)C(=O)N(C)[C@@H](Cc1ccccc1)C(N)=O` [Example 26, 2-[2-[2-[[2-[2-[2-[[(4S)-4-Carboxy-4-(17-carboxyheptadecanoylamino)butanoyl]amino]ethoxy]ethoxy]acetyl]amino]ethoxy]ethoxy]acetyl-bAsp-Phe(4-sulfomethyl)-Nle-Gly-Trp-Nle-DMeAsp-MePhe-amide] ({C18 diacid-γGlu-AEEA-AEEA-βAsp}-[Phe(4-CH2SO3H)][Nle]GW[Nle][dNMeD][NMeF]-NH2), for which the negative-log EC50 (pEC50) in assay [1] (setting [3]) is less than 6.00. The pIC50 in assay [2] (setting [4]) is less than 5.00.
The corresponding values for `CCCC[C@H](NC(=O)[C@H](Cc1c[nH]c2ccccc12)NC(=O)CNC(=O)[C@H](CC(C)C)NC(=O)[C@H](Cc1ccc(OS(=O)(=O)O)cc1)NC(=O)[C@H](CC(=O)O)NC(=O)COCCOCCNC(=O)COCCOCCNC(=O)COCCOCCNC(=O)COCCOCCNC(=O)CC[C@H](NC(=O)CCCCCCCCCCCCCCCCC(=O)O)C(=O)O)C(=O)N(C)[C@H](CC(=O)O)C(=O)N(C)[C@@H](Cc1ccccc1)C(N)=O` [Example 31, 2-[2-[2-[[2-[2-[2-[[2-[2-[2-[[2-[2-[2-[[(4S)-4-Carboxy-4-(17-carboxyheptadecanoylamino)butanoyl]amino]ethoxy]ethoxy]acetyl]amino]ethoxy]ethoxy]acetyl]amino]ethoxy]ethoxy]acetyl]amino]ethoxy]ethoxy]acetyl-Asp-sTyr-Leu-Gly-Trp-Nle-DMeAsp-MePhe-amide] are 6.96 and 6.32.
Consider `CCCC[C@H](NC(=O)[C@H](Cc1c[nH]c2ccccc12)NC(=O)CNC(=O)[C@H](CC(C)C)NC(=O)[C@H](Cc1ccc(OS(=O)(=O)O)cc1)NC(=O)[C@H](CCC(=O)O)NC(=O)COCCOCCNC(=O)COCCOCCNC(=O)CC[C@H](NC(=O)CCCCCCCCCCCCCCCCCCC(=O)O)C(=O)O)C(=O)N(C)[C@H](CC(=O)O)C(=O)N(C)[C@@H](Cc1ccccc1)C(N)=O` [Example 37, 2-[2-[2-[[2-[2-[2-[[(4S)-4-Carboxy-4-(19-carboxynonadecanoylamino)butanoyl]amino]ethoxy]ethoxy]acetyl]amino]ethoxy]ethoxy]acetyl-Glu-sTyr-Leu-Gly-Trp-Nle-DMeAsp-MePhe-amide] ({C20 diacid-γGlu-AEEA-AEEA}-E[sY]LGW[Nle][dNMeD][NMeF]-NH2), for which, in assay [2] (setting [4]), the pIC50 was 6.37.
The same measure, in the same setting: for `CCCC[C@H](NC(=O)[C@H](Cc1c[nH]c2ccccc12)NC(=O)CNC(=O)[C@@H](NC(=O)[C@H](Cc1ccc(OS(=O)(=O)O)cc1)NC(=O)[C@H](CC(=O)O)NC(=O)COCCOCCNC(=O)COCCOCCNC(=O)CC[C@H](NC(=O)CCCCCCCCCCCCCCCCC(=O)O)C(=O)O)[C@@H](C)CC)C(=O)N(C)[C@H](CC(=O)O)C(=O)N(C)[C@@H](Cc1ccccc1)C(N)=O` [Example 47, 2-[2-[2-[[2-[2-[2-[[(4S)-4-Carboxy-4-(17-carboxyheptadecanoylamino)butanoyl]amino]ethoxy]ethoxy]acetyl]amino]ethoxy]ethoxy]acetyl-Asp-sTyr-Ile-Gly-Trp-Nle-DMeAsp-MePhe-amide] ({C18 diacid-γGlu-AEEA-AEEA}-D[sY]IGW[Nle][dNMeD][NMeF]-NH2) the value was 6.47.

As usually defined, the pEC50 is the EC50 on a negative log10 scale, so that one unit is a factor of ten. The pIC50 is −log10 of the IC50, conventionally taken in molar units.
